Earlier results on one compound are cited in patent US6514993B1, “Serotonin 5-HT1A and dopamin D2 receptor ligands” (H. Lundbeck A/S, priority 1994, dated 2003).

The target in this data set is T1, 5-HT1A receptors (Rattus norvegicus, UniProt P19327).
T1 sequence (P19327 1-422): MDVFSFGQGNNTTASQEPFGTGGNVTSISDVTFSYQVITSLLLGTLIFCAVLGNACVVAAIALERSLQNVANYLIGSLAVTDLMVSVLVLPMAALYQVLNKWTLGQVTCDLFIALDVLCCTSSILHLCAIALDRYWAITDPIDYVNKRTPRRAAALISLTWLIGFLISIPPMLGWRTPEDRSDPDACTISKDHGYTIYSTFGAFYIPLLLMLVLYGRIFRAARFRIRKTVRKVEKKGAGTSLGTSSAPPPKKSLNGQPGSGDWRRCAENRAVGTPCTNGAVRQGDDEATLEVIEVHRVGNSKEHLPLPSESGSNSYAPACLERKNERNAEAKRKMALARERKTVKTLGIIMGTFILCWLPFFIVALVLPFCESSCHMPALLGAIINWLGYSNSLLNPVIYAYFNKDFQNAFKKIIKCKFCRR
Further details: antagonist effects of a test compound on 5-HT1A receptors in vivo; from tissue; host or cells: whole animal (rat), in vivo behavioural test. The settings on record: partial 5-HT1A agonists; cited from earlier work.

Each structure is given as a SMILES string.

On to `O=C1CC2(CCCC2)CC(=O)N1CCCCN1CCN(c2ncccn2)CC1` [buspirone, 8-[4-[4-(2-pyrimidyl)-1-piperazinyl]butyl]-8-azaspiro[4,5]decane-7,9-dione], for which the “Inhibition of 5-MeO-DMT-induced 5-HT syndrome (general statement)” value is “inhibit the characteristic 5-HT syndrome produced by 5-MeO DMT”.
